From patent US9796719B2, “Compounds and pharmaceutical compositions thereof for the treatment of inflammatory disorders” (GALAPAGOS NV, priority 2013, dated 2017)

Tests used:
hENPP2 [1] = target: T1, hENPP2 (UniProtKB/SwissProt Sequence ref Q13822) (Homo sapiens (Human), UniProt Q13822); test: FS3 hENPP2 assay (fluorogenic substrate FS-3); assay type: biochemical; details: hENPP2, FS-3 as substrate
Procedure: Compound IC50 values are determined in a fluorescent hENPP2 (UniProtKB/SwissProt Sequence ref Q13822) biochemical assay using the fluorogenic autotaxin substrate FS-3 as substrate. FS-3 is a doubly labeled analog of LPC wherein the fluorophore is quenched through intramolecular energy transfer. Without hENPP2, the emission of the probe is quenched. If the substrate is hydrolyzed by hENPP2, the emission of the probe is not quenched anymore resulting in a fluorescence increase. Inhibition of hENPP2 by compounds will result in a decrease of the signal.
10 μL of a dilution series of compound, starting from 20 μM highest concentration, ⅕ dilution, is added to the wells. hENPP2 is used at a final concentration of 0.4 μg/mL or 0.64 μg/mL (it will be appreciated by the skilled person that the potency read out is independent of the enzyme concentration). The enzyme is diluted in 50 mM Tris-HCl pH 8.0, 250 mM NaCl, 5 mM KCl, 1 mM MgCl2, 1 mM CaCl2, 0.1% fatty acid free BSA in a total volume of 20 μL. Enzyme mixture is added to compounds and the resulting mixture is incubated for 30 min at room temperature under shaking. The reaction is started by the addition of 20 μL of 0.75 μM FS-3 diluted in the same buffer as described above and the mixture is incubated at 30° C. for 30 min. Fluorescence is read on the Envision (Excitation 485 nm, emission 520 nm).

hENPP2 [2] = target: T1, hENPP2; test: LPC hENPP2 assay (choline release, LPC as substrate); assay type: biochemical
In short: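 Detection is coupled: choline oxidase produces peroxide, which HRP uses to form quinoneimine dye from TOOS and 4-aminoantipyrine, read at 555 nm. The reaction is stopped with 20 mM EGTA in the developer mix, then incubated 30 min at room temperature; inhibition lowers signal.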

| Compound | IC50 (hENPP2 [1]) [nM] | IC50 (hENPP2 [2]) [nM] |
| --- | --- | --- |
| CCc1nc2cnc(N3CCN(CC(=O)NC)CC3)cn2c1N(C)c1nc(-c2ccc(F)cc2)c(C#N)s1 [Cpd 9, 2-(4-(3-((5-cyano-4-(4-fluorophenyl)thiazol-2-yl)(methyl)amino)-2-ethylimidazo[1,2-a]pyrazin-6-yl)piperazin-1-yl)-N-methylacetamide] | 0.01 to 25 | 500 to 1000 |
| CCc1nc2cnc(N3CCN(CC(=O)N4CC(F)C4)CC3)cn2c1N(C)c1nc(-c2ccc(F)cc2)c(C#N)s1 [Cpd 11, 2-((2-ethyl-6-(4-(2-(3-fluoroazetidin-1-yl)-2-oxoethyl)piperazin-1-yl)imidazo[1,2-a]pyrazin-3-yl)(methyl)amino)-4-(4-fluorophenyl) thiazole-5-carbonitrile] | 0.01 to 25 | 100 to 500 |
| CCc1nc2cnc(C3CCNCC3)cn2c1N(C)c1nc(-c2ccc(F)cc2)c(C#N)s1 [Cpd 22, 2-((2-ethyl-6-(piperidin-4-yl)imidazo[1,2-a]pyrazin-3-yl)(methyl)amino)-4-(4-fluorophenyl) thiazole-5-carbonitrile] | 25 to 50 | > 1000 |
| CCc1nc2ccc(N3CCN(CC(=O)N4CC(O)C4)CC3)nn2c1N(C)c1nc(-c2ccc(F)cc2)cs1 [Cpd 26] | 0.01 to 25 | 100 to 500 |
| CCc1nc2ccc(N3CCN(CC(=O)N4CC(O)C4)CC3)nn2c1N(C)c1nc(-c2ccc(F)cc2)c(C#N)s1 [Cpd 27, 2-((2-ethyl-6-(4-(2-(3-hydroxyazetidin-1-yl)-2-oxoethyl)piperazin-1-yl)imidazo[1,2-b]pyridazin-3-yl)(methyl)amino)-4-(4-fluorophenyl) thiazole-5-carbonitrile] | 0.01 to 25 | 0.01 to 100 |
| CCc1nc2ccc(N3CCN(CC(=O)N4CCCC4CO)CC3)nn2c1N(C)c1nc(-c2ccc(F)cc2)cs1 (stereo not shown) [Cpd 29] | 0.01 to 25 | 100 to 500 |
| CCc1nc2ccc(N3CCN(CC(=O)N(C)C)CC3)nn2c1N(C)c1nc(-c2ccc(F)cc2)c(CO)s1 [Cpd 43, 2-(4-(2-ethyl-3-((4-(4-fluorophenyl)-5-(hydroxymethyl)thiazol-2-yl)(methyl)amino)imidazo[1,2-b]pyridazin-6-yl)piperazin-1-yl)-N,N-dimethylacetamide] | 0.01 to 25 | 100 to 500 |
| CCc1nc2ccc(N3CCN(CC(=O)N(C)C)CC3)nn2c1N(C)c1nc(-c2ccc(F)cc2)c(C(=O)C(F)(F)F)s1 [Cpd 45, 2-(4-(2-ethyl-3-((4-(4-fluorophenyl)-5-(2,2,2-trifluoroacetoyl)thiazol-2-yl)(methyl)amino)imidazo[1,2-b]pyridazin-6-yl)piperazin-1-yl)-N,N-dimethylacetamide] | 0.01 to 25 | 0.01 to 100 |
| CCc1nc2ccc(N3CCN(CCN4CCCC4=O)CC3)nn2c1N(C)c1nc(-c2ccc(F)cc2)cs1 [Cpd 46, 1-(2-(4-(2-ethyl-3-((4-(4-fluorophenyl)thiazol-2-yl)(methyl)amino)imidazo[1,2-b]pyridazin-6-yl)piperazin-1-yl)ethyl)pyrrolidin-2-one] | 0.01 to 25 | 100 to 500 |
| CCc1nc2ccc(N3CCN(C(=O)C4CCCO4)CC3)nn2c1N(C)c1nc(-c2ccc(F)cc2)cs1 (stereo not drawn) [Cpd 47, (4-(2-ethyl-3-((4-(4-fluorophenyl)thiazol-2-yl)(methyl)amino)imidazo[1,2-b]pyridazin-6-yl)piperazin-l-yl)(tetrahydrofuran-2-yl)methanone] | 0.01 to 25 | > 1000 |
| CCc1nc2ccc(N3CCN(CC4CCCO4)CC3)nn2c1N(C)c1nc(-c2ccc(F)cc2)cs1 (stereo not shown) [Cpd 48, N-(2-ethyl-6-(4-((tetrahydrofuran-2-yl)methyl)piperazin-1-yl)imidazo[1,2-b]pyridazin-3-yl)-4-(4-fluorophenyl)-N-methylthiazol-2-amine] | 0.01 to 25 | 100 to 500 |
| CCc1nc2ccc(N3CCN(CCCO)CC3)nn2c1N(C)c1nc(-c2ccc(F)cc2)cs1 [Cpd 49, 3-(4-(2-ethyl-3-((4-(4-fluorophenyl)thiazol-2-yl)(methyl)amino)imidazo[1,2-b]pyridazin-6-yl)piperazin-1-yl)propan-1-ol] | 0.01 to 25 | 500 to 1000 |
| CCc1nc2ccc(N3CCN(CCC#N)CC3)nn2c1N(C)c1nc(-c2ccc(F)cc2)cs1 [Cpd 51] | 0.01 to 25 | > 1000 |
| CCc1nc2ccc(N3CCN(CCOC)CC3)nn2c1N(C)c1nc(-c2ccc(F)cc2)cs1 [Cpd 53, N-(2-ethyl-6-(4-(2-methoxyethyl)piperazin-1-yl)imidazo[1,2-b]pyridazin-3-yl)-4-(4-fluorophenyl)-N-methylthiazol-2-amine] | 0.01 to 25 | > 1000 |
| CCc1nc2ccc(N3CCN(CC(=O)NC(C)C)CC3)nn2c1N(C)c1nc(-c2ccc(F)cc2)cs1 [Cpd 54, 2-(4-(2-ethyl-3-((4-(4-fluorophenyl)thiazol-2-yl)(methyl)amino)imidazo[1,2-b]pyridazin-6-yl)piperazin-1-yl)-N-isopropylacetamide] | 0.01 to 25 | > 1000 |
| CCc1nc2ccc(N3CCN(CC(=O)N4CCCC4)CC3)nn2c1N(C)c1nc(-c2ccc(F)cc2)cs1 [Cpd 55, 2-(4-(2-ethyl-3-((4-(4-fluorophenyl)thiazol-2-yl)(methyl)amino)imidazo[1,2-b]pyridazin-6-yl)piperazin-1-yl)-1-(pyrrolidin-1-yl)ethanone] | 0.01 to 25 | 100 to 500 |
| CCc1nc2ccc(N3CCN(CCNC(C)=O)CC3)nn2c1N(C)c1nc(-c2ccc(F)cc2)cs1 [Cpd 57, N-(2-(4-(2-ethyl-3-((4-(4-fluorophenyl)thiazol-2-yl)(methyl)amino)imidazo[1,2-b]pyridazin-6-yl)piperazin-1-yl)ethyl)acetamide] | 0.01 to 25 | 100 to 500 |
| CCc1nc2ccc(N3CCN[C@H](CO)C3)nn2c1N(C)c1nc(-c2ccc(F)cc2)cs1 [Cpd 60, (S)-(4-(2-ethyl-3-((4-(4-fluorophenyl)thiazol-2-yl)(methyl)amino)imidazo[1,2-b]pyridazin-6-yl)piperazin-2-yl)methanol] | 0.01 to 25 | > 1000 |
| CCc1nc2ccc(N3CCN(CC(=O)N4CCOCC4)[C@H](CO)C3)nn2c1N(C)c1nc(-c2ccc(F)cc2)cs1 [Cpd 65, (S)-2-(4-(2-ethyl-3-((4-(4-fluorophenyl)thiazol-2-yl)(methyl)amino)imidazo[1,2-b]pyridazin-6-yl)-2-(hydroxymethyl)piperazin-1-yl)-1-morpholinoethanone] | 0.01 to 25 | 100 to 500 |
| CCc1nc2ccc(N3CCN(S(C)(=O)=O)[C@H](CO)C3)nn2c1N(C)c1nc(-c2ccc(F)cc2)cs1 [Cpd 67, (S)-(4-(2-ethyl-3-((4-(4-fluorophenyl)thiazol-2-yl)(methyl)amino)imidazo[1,2-b]pyridazin-6-yl)-1-(methylsulfonyl)piperazin-2-yl)methanol] | 0.01 to 25 | 100 to 500 |
| CCc1nc2ccc(N3CCN(S(=O)(=O)CC)CC3)nn2c1N(C)c1nc(-c2ccc(F)cc2)cs1 [Cpd 71, N-(2-ethyl-6-(4-(ethylsulfonyl)piperazin-1-yl)imidazo[1,2-b]pyridazin-3-yl)-4-(4-fluorophenyl)-N-methylthiazol-2-amine] | 0.01 to 25 | > 1000 |
| CCc1nc2ccc(N3CCN(S(C)(=O)=O)C(CCO)C3)nn2c1N(C)c1nc(-c2ccc(F)cc2)cs1 (stereo not shown) [Cpd 72, 2-(4-(2-ethyl-3-((4-(4-fluorophenyl)thiazol-2-yl)(methyl)amino)imidazo[1,2-b]pyridazin-6-yl)-1-(methylsulfonyl)piperazin-2-yl) ethanol] | 0.01 to 25 | 500 to 1000 |
| CCc1nc2ccc(N3CCOCC3)nn2c1N(C)c1nc(-c2ccc(F)cc2)cs1 [Cpd 78, N-(2-ethyl-6-morpholinoimidazo [1,2-b]pyridazin-3-yl)-4-(4-fluorophenyl)-N-methylthiazol-2-amine] | 0.01 to 25 | > 1000 |
| CCc1nc2ccc(N3CCC(NC(=O)OC(C)(C)C)CC3)nn2c1N(C)c1nc(-c2ccc(F)cc2)cs1 [Cpd 81, tert-butyl 1-(2-ethyl-3-((4-(4-fluorophenyl)thiazol-2-yl)(methyl)amino)imidazo[1,2-b]pyridazin-6-yl)piperidin-4-ylcarbamate] | 0.01 to 25 | > 1000 |
| CCc1nc2ccc(N3CCC(N)CC3)nn2c1N(C)c1nc(-c2ccc(F)cc2)cs1 [Cpd 82, N-(6-(4-aminopiperidin-1-yl)-2-ethylimidazo[1,2-b]pyridazin-3-yl)-4-(4-fluorophenyl)-N-methylthiazol-2-amine] | 0.01 to 25 | > 1000 |
| CCc1nc2ccc(N3CCC(NS(C)(=O)=O)CC3)nn2c1N(C)c1nc(-c2ccc(F)cc2)cs1 [Cpd 83, N-(1-(2-ethyl-3-((4-(4-fluorophenyl)thiazol-2-yl)(methyl)amino)imidazo[1,2-b]pyridazin-6-yl)piperidin-4-yl)methane-sulfonamide] | 0.01 to 25 | > 1000 |
